Assay results taken from patent publication US7834005B2, “Pyrrolobenzodiazepine derivatives, compositions comprising the same and methods related thereto” (The United States of America as represented by the …, priority 2003, dated 2010).
Several values for one entry are separate records, joined by “and”; a condition that tells them apart may be missing. Identical values can stand only once.

Columns and labels:
MDA-MB-435 (breastca) = test: in vivo efficacy, MDA-MB-435 (breastca) subcutaneous tumor model; design: species or system athymic mice; conditions: MDA-MB-435, Early-SC, Q4D X3, 0.45 mg/kg/dose, intravenous
Procedure: (§1) NSC 694501 was evaluated for in vivo efficacy in athymic mice bearing 8 subcutaneous tumor models: LOX and UACC-62 (melanoma), OVCAR-3 and OVCAR-5 (ovarian ca), MDA-MB-435 (breastca), SF-295 and C-6 (glioma), and LS-174T (colonca). The models were selected on the basis of hollow fiber assays and in vitro time course assays.
(§2) A qDx5 schedule conferred better efficacy than a q4Dx3 schedule in each of the 4 models tested on two schedules. NSC 694501 was active over a wide dosage range in athymic mice using compound prepared fresh just prior to injection in 1% EtOH vehicle: On a qDx5 schedule, the maximum tolerated dose was approximately 120 μg/kg/dose and the minimum effective dose in one of the most sensitive models (SF-295) was 16 μg/kg/dose.

[1] = as above; design: species or system athymic mice; conditions: athymic, mouse, in vivo; MDA-MB-435, Early-SC, Q4D X3, intravenous
Procedure: as §1, §2

OVCAR-3 (ovarian ca) = test: in vivo efficacy, OVCAR-3 (ovarian ca) subcutaneous tumor model; design: species or system athymic mice; conditions: OVCAR-3, Early-SC, intravenous
Procedure: as §1, §2

[2] = as above; design: species or system athymic mice; conditions: athymic, mouse, in vivo, OVCAR-3, Early-SC
Procedure: as §1, §2

[3] = tested on: LS-174 (human colon cancer); test: in vivo efficacy, LS-174 (human colon cancer) in nude rats; conditions: i.v.; for BW Loss / Growth Delay % [(T − C)/C] / Optimal % T/C: LS-174, Early-SC, nude rats
[4] = in vivo efficacy, LOX (melanoma) tumor model; design: species or system athymic mice; conditions: athymic, mouse, in vivo, intravenous, QD X5, intravenous
Procedure: as §1, §2

LOX (melanoma) = test: in vivo efficacy, LOX (melanoma) tumor model; design: species or system athymic mice; conditions: intravenous
Procedure: as §1, §2

[5] = in vivo efficacy, summary over 8 subcutaneous tumor models; design: species or system athymic mice; conditions: mouse, in vivo, intravenous; athymic mice, qDx5 schedule, prepared fresh in 1% EtOH vehicle; read-out: maximum tolerated dose
Procedure: as §1, §2

[6] = tested on: 8 subcutaneous tumor models; test: as above; design: species or system athymic mice
Procedure: as §1, §2

[7] = tested on: standard panel of 12 tumor cell lines; test: hollow fiber assay; format: in vivo, mice
Procedure: A standard panel of 12 tumor cell lines was used for the routine hollow fiber screening. These included NCI-H23, NCI-H522, MDA-MB-231, MDA-MB-435, SW-620, COLO 205, LOX, UACC-62, OVCAR-3, OVCAR-5, U251 and SF-295. In addition, alternate lines were used for specialized testing of compounds on a nonroutine basis. The cell lines were cultivated in RPMI-1640 containing 10% FBS and 2 mM glutamine. On the day preceeding hollow fiber preparation, the cells were given a supplementation of fresh medium to maintain log phase growth. For fiber preparation, the cells were harvested by standard trypsinization technique and resuspended at the desired cell density ((2-10×10^6 cells/ml). The cell suspension was flushed into 1 mm (internal diameter) polyvinylidene fluoride hollow fibers with a molecular weight exclusion of 500,000 Da. The hollow fibers were heat-sealed at 2 cm intervals and the samples generated from these seals were placed into tissue culture medium and incubated at 37° C. in 5% CO2 for 24 to 48 hours prior to implantation. A total of 3 different tumor lines were prepared for each experiment so that each mouse receives 3 intraperitoneal implants (1 of each tumor line) and 3 subcutaneous implants (1 of each tumor line). On the day of implantation, samples of each tumor cell line preparation were quantitated for viable cell mass by a stable endpoint MTT assay so that the time zero cell mass is known. Mice were treated with experimental agents starting on day 3 or 4 following fiber implantation and continuing daily for 4 days. Each agent was administered by intraperitoneal injection at 2 dose levels. The fibers were collected from the mice on the day following the fourth compound treatment and subjected to the stable endpoint MTT assay. The optical density of each sample was determined spectrophotometrically at 540 nm and the mean of each treatment group was calculated. The percent net growth for each cell line in each treatment group was calculated and compared to the percent net growth in the vehicle treated controls. A 50% or greater reduction in percent net growth in the treated samples compared to the vehicle control samples was considered a positive result. Each positive result was given a score of 2 and all of the scores were totaled for a given compound. The maximum possible score for an agent is 96 (12 cell lines×2 sites×2 dose levels×2 [score]).

[8] = Early-SC, QD X5, 0.054 mg/kg/dose

C=C1C[C@H]2C=Nc3cc(OCCCOc4cc5c(cc4OC)C(=O)N4CC(=C)C[C@H]4C=N5)c(OC)cc3C(=O)N2C1 [NSC 694501]
BW Loss (MDA-MB-435 (breastca)): 19.8%
Growth Delay % [(T − C)/C] (MDA-MB-435 (breastca)): 41%
Optimal % T/C (MDA-MB-435 (breastca)): 3%
tumor free (tf) (MDA-MB-435 (breastca)): 1 tf
MTD at 9 days [1]: 0.45 mg/kg
BW Loss (OVCAR-3 (ovarian ca); Q4D X3, 0.45 mg/kg/dose): 6.6% and 13.9%
Growth Delay % [(T − C)/C] (OVCAR-3 (ovarian ca); Q4D X3, 0.45 mg/kg/dose): 73% and 55%
Optimal % T/C (OVCAR-3 (ovarian ca); Q4D X3, 0.45 mg/kg/dose): 20% and 10%
BW Loss (OVCAR-3 (ovarian ca); QD X5, .27 mg/kg/dose): 7.9%
Growth Delay % [(T − C)/C] (OVCAR-3 (ovarian ca); QD X5, .27 mg/kg/dose): 114%
Optimal % T/C (OVCAR-3 (ovarian ca); QD X5, .27 mg/kg/dose): 9%
value in parentheses in Growth Delay column (OVCAR-3 (ovarian ca); QD X5, .27 mg/kg/dose): 1.9 L
MTD at 9 days ([2]; Q4D X3, intravenous): 0.45 mg/kg
MTD at 5 days ([2]; QD X5, intravenous): 0.27 mg/kg
BW Loss ([3]; QD X5, 0.018 mg/kg): 0.0%
Growth Delay % [(T − C)/C] ([3]; QD X5, 0.018 mg/kg): 43%
Optimal % T/C ([3]; QD X5, 0.018 mg/kg): 41%
BW Loss ([3]; QD X5, 0.027 mg/kg): 2.2%
Growth Delay % [(T − C)/C] ([3]; QD X5, 0.027 mg/kg): 93%
Optimal % T/C ([3]; QD X5, 0.027 mg/kg): 21%
BW Loss ([3]; QD X5, 0.040 mg/kg): 1.4%
Growth Delay % [(T − C)/C] ([3]; QD X5, 0.040 mg/kg): 83%
Optimal % T/C ([3]; QD X5, 0.040 mg/kg): 17%
tolerability and efficacy ([3]; nude rats bearing LS-174, 27 and 40 μg/kg/dose, qDx5): well tolerated and efficacious
MTD at 5 days ([4]; Early-SC): 0.054 mg/kg
MTD at 5 days ([4]; IP): 0.4 mg/kg
BW Loss (LOX (melanoma); [8]): 17.6%
Growth Delay % [(T − C)/C] (LOX (melanoma); [8]): 498%
Optimal % T/C (LOX (melanoma); [8]): 7%
value in parentheses in Growth Delay column (LOX (melanoma); [8]): 4.3 L
BW Loss (LOX (melanoma); IP, QD X5, 0.40 mg/kg/dose): 20.7%
ILS (LOX (melanoma); IP, QD X5, 0.40 mg/kg/dose): [−10% ILS]
MTD at 5 days [5]: ~0.12 mg/kg
cell kill ([6]; i.v bolus): multi-log cell kill in 4 models
growth delays ([6]; i.v bolus): significant growth delays in 7 models
activity in tumor models ([6]; i.v bolus drug delivery): active in each of the 8 tumor models
cell lines killed ([7]; hollow fiber assay): three cell lines killed: UACC-62 melanoma, OVCAR-3 ovarian cancer, and MDA-MB-435 breast cancer
hollow fiber assay score, intraperitoneal [i.p.] ([7]; intraperitoneal implants): 40
hollow fiber assay total score ([7]; ip + sc, maximum possible score 96): 54
hollow fiber assay score, subcutaneous [s.c.] ([7]; subcutaneous implants): 14
